Assay results published in paper PMC12661054, “The CIP2A-TOPBP1 axis facilitates mitotic DNA repair via MiDAS and MMEJ” (Nature Communications, 2025).
Entries after “also recorded” stand apart in the source; their conditions may differ.

Legend:
Type in all cases: cell-based, human
SLX4 Thr1260 = SLX4 Thr1260 phosphorylation in mitotic HEK293TN cells (western blot); details: acute CDK1i (RO-3306 7 µM, 30 min) after 18 h 100 ng/ml nocodazole; eGFP-SLX4 or eGFP-TOPBP1 Co-IP
Description: (§1) GFP-Trap® Agarose Co-immunoprecipitation
(§2) HEK293TN cells were seeded to be ~25–30% confluence the next day in a 15 cm tissue culture dish. The following day cells were transfected using Lipofectamine 2000 transfection reagent (Thermo Fisher Scientific) with 24 µg of plasmid DNA encoding eGFP-SLX4 or eGFP-TOPBP1 expression cassettes following manufacturer’s instructions.
(§3) Forty eight hours post transfection cells were harvested after treatments as described, snap frozen on dry ice and stored at −80 °C. Cell pellets were removed from −80 storage and thawed on ice in 2.4 ml IP buffer 1 (100 mM NaCl, 0.2% Igepal CA-630, 1 mM MgCl2, 10% glycerol, 5 mM NaF, 50 mM Tris-HCl, pH 7.5), supplemented with EDTA Free […] protease inhibitor (Sigma Aldrich) and 25 U ml−1 Benzonase (Novagen). Cells were resuspended and rotated at 4 °C for 90 min. Benzonase was then inhibited by adjusted NaCl concentration to 200 mM and with the addition of 2 mM EDTA, followed by rotation for a further 30 min at 4 °C on a carousel. The cell suspension was then centrifuged at 16,000 x g for 25 min at 4 °C. […] The supernatant, now containing eluted material, was transferred to a new 1.5 ml microcentrifuge tube ready for downstream western blot analysis.

[1] = tested on: eGFP-SLX4 interaction with TOPBP1, MUS81, ERCC1; test: eGFP-SLX4 co-immunoprecipitation, mitotic HEK293TN cells; details: eGFP-SLX4 Co-IP; RO-3306 7 µM, 30 min, nocodazole-synchronised
Description: as §1, §2, §3

[2] = tested on: eGFP-TOPBP1 interaction with SLX4, MUS81, ERCC1, BTR complex; test: eGFP-TOPBP1 co-immunoprecipitation, mitotic HEK293TN cells; details: eGFP-TOPBP1 Co-IP; RO-3306 7 µM, 30 min
Description: as §1, §2
Forty eight hours post transfection cells were harvested after treatments as described, snap frozen on dry ice and stored at −80 °C. Cell pellets were removed from −80 storage and thawed on ice in 2.4 ml IP buffer 1 (100 mM NaCl, 0.2% Igepal CA-630, 1 mM MgCl2, 10% glycerol, 5 mM NaF, 50 mM Tris-HCl, pH 7.5), supplemented with EDTA Free […] protease inhibitor (Sigma Aldrich) and 25 U ml−1 Benzonase (Novagen). Cells were resuspended and rotated at 4 °C for 90 min. Benzonase was then inhibited by adjusted NaCl concentration to 200 mM and with the addition of 2 mM EDTA, followed by rotation for a further 30 min at 4 °C on a carousel. The cell suspension was then centrifuged at 16,000 x g for 25 min at 4 °C. In parallel, 20 µl agarose binding control bead (bab, Chromotek) slurry was washed with 500 µl IP buffer 2 (200 mM NaCl, 0.2% Igepal CA-630, 1 mM MgCl2, 10% glycerol, 5 mM NaF, 2 mM EDTA, 50 mM Tris-HCl, pH 7.5). The binding control beads were then centrifuged at 2500 x g for 2 min. The supernatant was then removed and the IP2 wash was repeated twice more. Cell lysates (soluble supernatant) were then collected added to the agarose binding control beads in 15 ml centrifuge tubes and subsequently rotated at 4 °C on carousel for 60 min. The agarose binding control beads were then pelleted by centrifugation at 2000 x g for 2 min, the supernatant was then transferred to a new tube. BCA assay was then carried out to determine the protein concentration of the pre-cleared cell lysate. […] The supernatant, now containing eluted material, was transferred to a new 1.5 ml microcentrifuge tube ready for downstream western blot analysis.

## O=C1NC(=NCc2cccs2)S/C1=C\c1ccc2ncccc2c1 [CDK1i]
SLX4 Thr1260
  SLX4 Thr1260 phosphorylation: reduced; also recorded: marked reduction in SLX4 Thr1260 phosphorylation
[1]
  SLX4 Thr1260 phosphorylation and binding of TOPBP1: reduced SLX4 phosphorylation of Thr1260 and binding of TOPBP1
  eGFP-SLX4 interaction with MUS81 or ERCC1: did not affect its interaction with MUS81 or ERCC1
[2]
  interaction between TOPBP1 and MUS81 or ERCC1: disrupted the interaction between TOPBP1 and MUS81 or ERCC1
  interaction between TOPBP1 and components of the BTR complex: did not affect the interaction between TOPBP1 and components of the BTR complex
  interaction between eGFP-TOPBP1 and SLX4: hindered the interaction between eGFP-TOPBP1 and SLX4
